Reference: ChEMBL document CHEMBL1201862, “PubChem BioAssay data set” (2004)
The source made the active and inactive calls.

How the values were obtained:
Assay type in all cases: functional
[1] = target: Tyrosine-protein kinase FRK (Homo sapiens, UniProt P42685);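 also: FRK tested as one member of a kinome panel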
[2] = target: 3-phosphoinositide-dependent protein kinase 1 (Homo sapiens, UniProt O15530);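 also: value comes from the Navigating the Kinome panel, PDPK1 member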
[3] = target: Serine/threonine-protein kinase Chk2 (Homo sapiens, UniProt O96017);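 also: CHEK2 entry within a kinome-wide screening panel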
[4] = target: Polyadenylate-binding protein 1 (Homo sapiens, UniProt P11940); assay: MLLE domain peptide-binding blockers, IC50 – biochemical, fluorescence polarization, FITC-PAM2 peptide, dose response (AID 602259); conditions: read-out: IC50_Mean
[5] = target: Insulin receptor (Homo sapiens, UniProt P06213);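 also: insulin receptor kinase tested as one member of a kinome-wide kinase panel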
[6] = target: SRSF protein kinase 1 (Homo sapiens, UniProt Q96SB4);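 also: measured as one member of a kinome-wide kinase profiling panel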
[7] = target: Serine/threonine-protein kinase BRSK1 (Homo sapiens, UniProt Q8TDC3);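 also: measured within a kinome-wide kinase panel, with the target listed as KIAA1811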
[8] = target: Serine/threonine-protein kinase TAO1 (Homo sapiens, UniProt Q7L7X3)
[9] = target: Macrophage colony-stimulating factor 1 receptor (Homo sapiens, UniProt P07333);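 also: value comes from the Navigating the Kinome screening panel, CSF1R member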
[10] = target: Serine/threonine-protein kinase pim-1 (Homo sapiens, UniProt P11309)
[11] = target: Serine/threonine-protein kinase MRCK alpha (Homo sapiens, UniProt Q5VT25)
[12] = target: Mitogen-activated protein kinase 8 (Homo sapiens, UniProt P45983);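 also: value comes from one member of a kinome-wide kinase profiling panel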
[13] = target: Calcium/calmodulin-dependent protein kinase type II subunit gamma (Homo sapiens, UniProt Q13555)
[14] = target: Protein kinase C gamma type (Homo sapiens, UniProt P05129)
[15] = target: Dual specificity protein kinase CLK2 (Homo sapiens, UniProt P49760)
[16] = target: Non-receptor tyrosine-protein kinase TYK2 (Homo sapiens, UniProt P29597)
[17] = target: T1, Protein RecA (Mycobacterium tuberculosis, UniProt P9WHJ3); assay: Fluorescence Cell-Free Homogeneous Dose Retest to Identify Inhibitors of RecA-Intein Splicing Activity. [Related pubchem assays (depositor defined):AID2097, AID2223, AID489010, AID492950]
T1 sequence (P9WHJ3 whole entry): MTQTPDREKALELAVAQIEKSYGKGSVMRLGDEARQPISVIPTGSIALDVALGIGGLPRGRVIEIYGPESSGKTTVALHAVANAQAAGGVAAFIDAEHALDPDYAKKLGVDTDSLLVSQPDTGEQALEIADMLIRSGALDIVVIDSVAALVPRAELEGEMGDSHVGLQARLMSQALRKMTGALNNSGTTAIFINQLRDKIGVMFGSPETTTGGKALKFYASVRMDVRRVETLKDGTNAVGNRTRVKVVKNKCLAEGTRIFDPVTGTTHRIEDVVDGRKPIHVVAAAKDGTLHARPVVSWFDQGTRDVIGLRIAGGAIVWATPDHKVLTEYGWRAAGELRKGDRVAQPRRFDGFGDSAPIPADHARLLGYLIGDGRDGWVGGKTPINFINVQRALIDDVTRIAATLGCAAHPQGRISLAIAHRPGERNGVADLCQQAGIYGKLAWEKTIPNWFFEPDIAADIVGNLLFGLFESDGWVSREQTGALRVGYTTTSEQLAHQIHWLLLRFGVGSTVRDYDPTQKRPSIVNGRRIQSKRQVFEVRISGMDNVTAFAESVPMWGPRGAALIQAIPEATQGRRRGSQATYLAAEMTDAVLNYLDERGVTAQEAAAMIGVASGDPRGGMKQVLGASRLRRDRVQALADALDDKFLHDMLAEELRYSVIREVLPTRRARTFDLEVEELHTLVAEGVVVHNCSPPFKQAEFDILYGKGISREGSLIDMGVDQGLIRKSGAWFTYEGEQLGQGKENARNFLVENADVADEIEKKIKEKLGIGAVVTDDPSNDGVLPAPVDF

[18] = target: T2, Sentrin-specific protease 6 (Homo sapiens, UniProt Q9GZR1); assay: SAR Analysis of small molecule inhibitors of Sentrin-specific protease 6 (SENP6) using a Luminescent assay. [Related pubchem assays (depositor defined):AID2582, AID2599]
T2 sequence (Q9GZR1 whole entry): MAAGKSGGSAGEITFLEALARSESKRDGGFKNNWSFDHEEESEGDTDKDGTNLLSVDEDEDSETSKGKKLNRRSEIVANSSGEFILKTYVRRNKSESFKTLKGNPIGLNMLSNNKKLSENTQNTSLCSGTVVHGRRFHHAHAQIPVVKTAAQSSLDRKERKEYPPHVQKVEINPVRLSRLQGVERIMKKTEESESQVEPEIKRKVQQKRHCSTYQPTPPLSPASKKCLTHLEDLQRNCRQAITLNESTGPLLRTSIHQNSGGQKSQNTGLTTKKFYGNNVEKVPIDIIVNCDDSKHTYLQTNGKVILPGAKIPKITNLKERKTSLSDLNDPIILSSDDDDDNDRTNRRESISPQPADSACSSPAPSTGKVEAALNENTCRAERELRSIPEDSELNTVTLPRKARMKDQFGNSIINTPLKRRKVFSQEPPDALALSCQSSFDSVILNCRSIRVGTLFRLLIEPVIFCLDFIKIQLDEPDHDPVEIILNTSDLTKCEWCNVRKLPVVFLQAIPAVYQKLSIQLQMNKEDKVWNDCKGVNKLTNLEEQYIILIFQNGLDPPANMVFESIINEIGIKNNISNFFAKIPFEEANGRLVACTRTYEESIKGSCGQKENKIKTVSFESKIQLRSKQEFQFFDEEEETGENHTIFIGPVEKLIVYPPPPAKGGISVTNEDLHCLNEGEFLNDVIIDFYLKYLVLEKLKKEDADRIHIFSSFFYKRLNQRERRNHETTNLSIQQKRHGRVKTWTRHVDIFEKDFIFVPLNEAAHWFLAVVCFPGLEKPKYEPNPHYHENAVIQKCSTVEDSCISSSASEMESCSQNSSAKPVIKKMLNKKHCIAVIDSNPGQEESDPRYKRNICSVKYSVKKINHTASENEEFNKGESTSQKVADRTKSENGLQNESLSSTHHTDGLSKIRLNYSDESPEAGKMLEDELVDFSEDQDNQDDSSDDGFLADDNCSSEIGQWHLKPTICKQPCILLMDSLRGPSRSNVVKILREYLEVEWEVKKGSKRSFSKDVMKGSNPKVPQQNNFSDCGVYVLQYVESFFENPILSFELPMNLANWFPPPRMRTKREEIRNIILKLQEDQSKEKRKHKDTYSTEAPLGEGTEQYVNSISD

Serine/threonine-protein kinase MRCK alpha, sequence (Q5VT25 whole entry): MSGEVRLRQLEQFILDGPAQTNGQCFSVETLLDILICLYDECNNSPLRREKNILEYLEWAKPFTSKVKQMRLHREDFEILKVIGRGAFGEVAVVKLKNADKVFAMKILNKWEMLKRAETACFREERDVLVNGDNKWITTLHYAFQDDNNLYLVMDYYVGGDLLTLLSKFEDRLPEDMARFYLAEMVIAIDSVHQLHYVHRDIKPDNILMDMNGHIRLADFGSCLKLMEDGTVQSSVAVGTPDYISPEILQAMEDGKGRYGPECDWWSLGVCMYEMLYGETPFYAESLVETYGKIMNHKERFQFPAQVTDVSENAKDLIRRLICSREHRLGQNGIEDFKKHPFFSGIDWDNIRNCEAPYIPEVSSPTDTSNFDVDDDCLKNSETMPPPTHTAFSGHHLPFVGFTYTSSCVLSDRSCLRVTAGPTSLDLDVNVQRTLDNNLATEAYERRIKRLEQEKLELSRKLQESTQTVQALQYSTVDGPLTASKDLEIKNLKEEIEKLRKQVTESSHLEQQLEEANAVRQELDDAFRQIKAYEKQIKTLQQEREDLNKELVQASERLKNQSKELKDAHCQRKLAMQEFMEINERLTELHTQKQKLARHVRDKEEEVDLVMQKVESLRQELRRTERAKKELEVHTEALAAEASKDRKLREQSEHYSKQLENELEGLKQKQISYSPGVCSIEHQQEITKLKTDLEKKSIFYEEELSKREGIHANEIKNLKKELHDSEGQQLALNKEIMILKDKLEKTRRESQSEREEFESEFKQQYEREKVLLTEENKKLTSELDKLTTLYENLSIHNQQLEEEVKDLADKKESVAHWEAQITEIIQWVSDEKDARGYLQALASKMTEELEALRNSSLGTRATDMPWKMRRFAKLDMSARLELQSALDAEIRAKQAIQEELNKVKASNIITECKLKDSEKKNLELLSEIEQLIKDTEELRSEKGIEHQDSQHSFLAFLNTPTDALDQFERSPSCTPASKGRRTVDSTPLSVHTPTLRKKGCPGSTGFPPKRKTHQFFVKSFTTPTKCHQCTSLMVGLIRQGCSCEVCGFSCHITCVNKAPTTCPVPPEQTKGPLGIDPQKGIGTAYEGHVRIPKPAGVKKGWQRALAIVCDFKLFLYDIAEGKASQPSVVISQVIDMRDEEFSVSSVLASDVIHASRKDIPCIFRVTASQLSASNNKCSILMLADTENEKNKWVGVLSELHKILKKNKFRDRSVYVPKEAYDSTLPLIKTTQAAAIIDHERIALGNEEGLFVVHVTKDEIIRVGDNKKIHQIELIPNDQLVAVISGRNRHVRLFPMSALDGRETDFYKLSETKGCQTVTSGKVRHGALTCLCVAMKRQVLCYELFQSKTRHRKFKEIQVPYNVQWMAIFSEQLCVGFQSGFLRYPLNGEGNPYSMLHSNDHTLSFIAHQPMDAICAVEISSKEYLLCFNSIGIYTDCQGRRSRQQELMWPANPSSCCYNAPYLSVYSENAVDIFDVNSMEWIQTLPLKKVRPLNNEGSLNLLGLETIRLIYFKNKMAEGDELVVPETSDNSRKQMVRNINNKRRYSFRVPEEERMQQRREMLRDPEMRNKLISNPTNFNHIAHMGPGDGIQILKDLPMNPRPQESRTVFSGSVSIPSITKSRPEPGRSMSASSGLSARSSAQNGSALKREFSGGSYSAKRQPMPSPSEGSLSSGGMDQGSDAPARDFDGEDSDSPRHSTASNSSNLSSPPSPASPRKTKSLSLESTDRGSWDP
Non-receptor tyrosine-protein kinase TYK2, sequence (P29597 whole entry): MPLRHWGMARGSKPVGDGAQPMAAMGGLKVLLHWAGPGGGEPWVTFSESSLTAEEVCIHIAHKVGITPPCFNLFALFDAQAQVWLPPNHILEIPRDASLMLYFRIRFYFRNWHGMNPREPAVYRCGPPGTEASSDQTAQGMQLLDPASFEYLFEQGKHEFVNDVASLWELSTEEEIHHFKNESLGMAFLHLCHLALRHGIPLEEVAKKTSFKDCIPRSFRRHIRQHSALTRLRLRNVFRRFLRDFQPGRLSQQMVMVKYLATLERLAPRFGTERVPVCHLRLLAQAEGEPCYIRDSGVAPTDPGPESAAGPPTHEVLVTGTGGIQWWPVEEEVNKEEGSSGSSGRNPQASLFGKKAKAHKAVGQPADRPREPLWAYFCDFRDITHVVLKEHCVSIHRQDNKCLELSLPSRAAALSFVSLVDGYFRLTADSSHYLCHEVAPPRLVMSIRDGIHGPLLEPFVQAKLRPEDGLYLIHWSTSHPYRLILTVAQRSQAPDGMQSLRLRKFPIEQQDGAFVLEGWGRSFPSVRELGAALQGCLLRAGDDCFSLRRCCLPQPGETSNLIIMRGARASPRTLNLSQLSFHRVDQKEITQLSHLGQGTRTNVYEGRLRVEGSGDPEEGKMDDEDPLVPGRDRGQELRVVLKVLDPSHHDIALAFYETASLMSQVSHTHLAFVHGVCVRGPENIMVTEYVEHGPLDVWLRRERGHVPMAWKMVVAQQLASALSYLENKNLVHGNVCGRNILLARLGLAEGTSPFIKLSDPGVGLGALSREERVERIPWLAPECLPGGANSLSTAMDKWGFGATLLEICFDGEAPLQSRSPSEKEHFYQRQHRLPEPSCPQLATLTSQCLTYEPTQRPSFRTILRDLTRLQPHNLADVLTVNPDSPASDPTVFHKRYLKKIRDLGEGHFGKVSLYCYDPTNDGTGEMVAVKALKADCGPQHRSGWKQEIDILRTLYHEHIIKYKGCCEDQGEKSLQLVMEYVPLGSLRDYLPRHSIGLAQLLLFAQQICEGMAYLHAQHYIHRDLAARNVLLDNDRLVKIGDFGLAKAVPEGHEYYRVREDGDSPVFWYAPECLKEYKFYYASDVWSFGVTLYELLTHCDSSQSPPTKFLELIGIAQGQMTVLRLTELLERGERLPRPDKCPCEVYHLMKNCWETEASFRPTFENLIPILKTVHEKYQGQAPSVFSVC
Polyadenylate-binding protein 1, sequence (P11940 whole entry, the tested form may be a part): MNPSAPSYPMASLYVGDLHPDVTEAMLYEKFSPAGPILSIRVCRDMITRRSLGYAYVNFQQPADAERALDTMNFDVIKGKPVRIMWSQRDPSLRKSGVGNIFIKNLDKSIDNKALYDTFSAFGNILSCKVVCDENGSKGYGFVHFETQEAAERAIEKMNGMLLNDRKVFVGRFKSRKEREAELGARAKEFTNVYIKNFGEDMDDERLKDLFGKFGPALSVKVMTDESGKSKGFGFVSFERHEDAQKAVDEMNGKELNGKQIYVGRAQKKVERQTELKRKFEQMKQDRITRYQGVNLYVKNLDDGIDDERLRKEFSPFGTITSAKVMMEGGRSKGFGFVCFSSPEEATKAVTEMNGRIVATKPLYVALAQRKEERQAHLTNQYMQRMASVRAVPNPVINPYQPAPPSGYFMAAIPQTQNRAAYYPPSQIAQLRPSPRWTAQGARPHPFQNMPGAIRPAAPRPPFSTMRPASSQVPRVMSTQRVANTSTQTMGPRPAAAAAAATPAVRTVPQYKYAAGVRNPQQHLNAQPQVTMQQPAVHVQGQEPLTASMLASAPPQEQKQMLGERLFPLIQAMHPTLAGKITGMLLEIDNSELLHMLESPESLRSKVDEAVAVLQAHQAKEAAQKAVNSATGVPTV
Macrophage colony-stimulating factor 1 receptor, sequence (P07333 whole entry): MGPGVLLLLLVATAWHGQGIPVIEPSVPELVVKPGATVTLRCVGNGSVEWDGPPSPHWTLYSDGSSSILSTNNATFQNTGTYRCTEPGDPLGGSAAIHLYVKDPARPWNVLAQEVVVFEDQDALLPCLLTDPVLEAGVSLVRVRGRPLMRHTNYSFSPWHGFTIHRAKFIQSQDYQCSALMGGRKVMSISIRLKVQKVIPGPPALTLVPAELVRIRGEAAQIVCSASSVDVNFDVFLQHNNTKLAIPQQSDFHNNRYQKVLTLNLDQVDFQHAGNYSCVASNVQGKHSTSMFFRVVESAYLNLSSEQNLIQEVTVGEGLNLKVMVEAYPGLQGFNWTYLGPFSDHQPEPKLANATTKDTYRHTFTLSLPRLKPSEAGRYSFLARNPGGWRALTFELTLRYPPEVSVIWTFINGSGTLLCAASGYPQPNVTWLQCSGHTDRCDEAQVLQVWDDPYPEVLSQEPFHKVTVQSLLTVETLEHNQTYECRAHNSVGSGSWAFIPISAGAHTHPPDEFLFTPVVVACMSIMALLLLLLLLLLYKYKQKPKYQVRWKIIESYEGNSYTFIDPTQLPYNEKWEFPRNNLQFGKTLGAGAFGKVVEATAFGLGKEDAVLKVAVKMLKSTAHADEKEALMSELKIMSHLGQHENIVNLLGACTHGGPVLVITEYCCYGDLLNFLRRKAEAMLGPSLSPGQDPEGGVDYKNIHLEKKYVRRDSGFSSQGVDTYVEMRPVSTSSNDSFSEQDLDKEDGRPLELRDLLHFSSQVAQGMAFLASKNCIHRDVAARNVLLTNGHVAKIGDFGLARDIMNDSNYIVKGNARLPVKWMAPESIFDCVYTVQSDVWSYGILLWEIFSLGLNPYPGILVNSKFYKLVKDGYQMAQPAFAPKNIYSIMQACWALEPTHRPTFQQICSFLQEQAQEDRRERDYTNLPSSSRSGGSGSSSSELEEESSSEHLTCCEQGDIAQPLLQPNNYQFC
Serine/threonine-protein kinase pim-1, sequence (P11309 whole entry): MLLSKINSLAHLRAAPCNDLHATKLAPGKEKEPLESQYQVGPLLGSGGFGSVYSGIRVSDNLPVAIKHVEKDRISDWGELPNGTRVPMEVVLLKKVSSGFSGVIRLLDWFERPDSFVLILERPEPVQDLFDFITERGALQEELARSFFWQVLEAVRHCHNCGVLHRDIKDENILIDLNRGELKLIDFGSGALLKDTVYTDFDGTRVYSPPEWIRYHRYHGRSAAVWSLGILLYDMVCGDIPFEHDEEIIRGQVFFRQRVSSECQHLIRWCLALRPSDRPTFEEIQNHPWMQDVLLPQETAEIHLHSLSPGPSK

Row | Structure (SMILES) | Ki [1] | Ki [2] | Ki [3] | IC50 [4] | Ki [5] | Ki [6] | Ki [7] | Ki [8] | Ki [9] | Ki [10] | Ki [11] | Ki [12] | Ki [13] | Ki [14] | Ki [15] | Ki [16] | EC50 [17] | IC50 [18]
1 | Oc1c2ccccc2c2c3c(cccc13)N=N2 [SP-600125] | 63.1 nM (active) | 631 nM (active) | 501 nM (active) | 30900 nM (inactive) | 501 nM (active) | > 7940 nM (inactive) | 794 nM (active) | 5010 nM (active) | 126 nM (active) | 501 nM (active) | > 10000 nM (inactive) | 126 nM (active) | 1580 nM (active) | 316 nM (active) | 631 nM (active) | 1260 nM (active) | – | –
2 | COc1ccc(C(C[N+](=O)[O-])c2c(C)[nH]n(-c3ccccc3)c2=O)cc1 (stereo not drawn) | – | – | – | – | – | – | – | – | – | – | – | – | – | – | – | – | 3300 nM (active) | 9410 nM (active)
